Source: US8598147B2, “Synergistic antimicrobial composition” (Dow Global Technologies LLC, priority 2009, dated 2013)

Columns and labels:
[1] = tested on: oil field isolated anaerobic consortium, mainly SRB; experiment: Biocidal efficacy (MBC, complete bacteria kill) of THPS, CTAC and THPS/CTAC combination against sulfate reducing bacteria; type: cell-based, sulfate reducing bacteria (SRB)
Protocol: Inside an anaerobic chamber (BACTRON anaerobic chamber), a deaerated sterile salt solution (3.1183 g of NaCl, 1.3082 mg of NaHCO3, 47.70 mg of KCl, 72.00 mg of CaCl2, 54.49 mg of MgSO4, 172.28 mg of Na2SO4, 43.92 mg of Na2CO3 in 1 L water) was contaminated with an oil field isolated anaerobic consortium, mainly SRB, at final bacterial concentrations of 10^6 to 10^7 CFU/mL.

[2] = tested on: oilfield SRB consortium; experiment: Biocidal efficacy against anaerobic bacteria for a high temperature and sulfide-rich environment (dosage for 99.999% bacterial reduction); type: cell-based, sulfate reducing bacteria (SRB); conditions: 80° C., 7 days, daily challenge of SRB consortium and 10 ppm sulfide ion
Protocol: Inside an anaerobic chamber (BACTRON IV), biocides solutions were challenged with 10^4 to 10^5CFU/mL of an oilfield SRB consortium and 10 ppm sulfide ion (added in the form of sodium sulfide). The biocide solutions were then incubated at 80° C. under anaerobic condition for 7 days, with daily challenge of the SRB consortium (10^4 to 10^5CFU/mL) and sulfide ion (10 ppm). Then the biocidal efficacy was evaluated against the field SRB consortium at 2 hours and 7 days. The biocidal efficacy was determined by the biocide dosage required for 99.999% bacterial reduction. Synergy Index was then calculated. Table 2 summarizes the efficacy of each biocide and their blends, and the Synergy Index of each combination.

Compound | MBC (active ppm) CTAC ([1]; CTAC concentration (alone or within the blend) for complete bacteria kill, 40° C., 24 hour, anaerobic, 10^6 to 10^7 CFU/mL) | Concentration (active ppm) required for 99.999% bacterial reduction CTAC ([2]; CTAC concentration (alone or within the blend)) | MBC (active ppm) THPS [1] | Concentration (active ppm) required for 99.999% bacterial reduction THPS ([2]; THPS concentration (alone or within the blend))
Cl/C=C\C[N+]12CN3CN(CN(C3)C1)C2.[Cl-] [CTAC, cis-1-(3-chloroallyl)-3,5,7-triaza-1-azoniaadamantane chloride] | 31.1 active ppm | 180 active ppm |  | 
tetrakis(hydroxymethyl)phosphonium sulfate [THPS] |  |  | 4.1 active ppm | 45.0 active ppm
